“And” between values parts separate entries of the source, which are not always exact repeats. Equal values may be shown once. The source made the active and inactive calls. No rule for the calls is given here.

The assay in a line: non-covalent RecA intein splicing inhibitors, dose response, biochemical, cell-free, fluorescence, secondary screen (AID 449750).
In the case of `O=C1C(Cc2ccccc2)Nc2ncnc(N3CCc4ccccc4C3)c2N1Cc1ccc(Cl)cc1` (stereo not drawn), the AC50 is > 38 µM (inactive). In the case of `O=C1c2[nH]nc(-c3ccccc3O)c2C(c2cccc(Cl)c2)N1Cc1ccco1` (stereo not drawn), the AC50 was > 38 µM (inactive). As to `Cc1ccc(C2C(C#N)=C(N)Oc3n[nH]c(-c4cccs4)c32)cc1` (stereo not drawn), the AC50 is 15.3 µM.

`O=C(CN(c1cccc(Br)c1)S(=O)(=O)c1ccccc1)N/N=C/c1cc([N+](=O)[O-])ccc1O`: the AC50 is > 38 µM (inactive). Consider `COc1ccc(-c2cc(CNC(=O)CCl)on2)cc1`, for which the AC50 was 16.1 µM. Take `CCC1C(=O)N(c2nc(C)cc(C)n2)N=C1C` (stereo not drawn): the AC50 was > 38 µM (inactive). `COc1ccc(C2NC(=O)NC3=C2CCc2ccccc23)cc1` (stereo not drawn): the AC50 is > 38 µM (inactive). As for `CCCCCCCCCCOC(=O)Cn1c(COc2ccc(OC)cc2)[n+](C)c2ccccc21`, the AC50 was 8.31 µM and 8.42 µM.

With `Cc1cc(C)n(-c2ccc([N+](=O)[O-])cc2)n1`, the AC50 is > 38 µM (inactive). As for `Cc1ccc(-n2nc(C)c3c2OC(N)=C(C#N)C3c2ccco2)cc1` (stereo not drawn), the AC50 was 12.9 µM. On to `Cc1[nH]nc2c1C1(CCN(C(=O)c3ccccc3)CC1)C(C#N)=C(N)O2`, for which the AC50 was > 38 µM (inactive). The value for `CCc1ccc(S(=O)(=O)/N=C2\C=C(Nc3ccc(O)cc3)C(=O)c3ccccc32)cc1` was 0.56 µM; that for `O=C(NC1=C(Nc2ccc(Cl)cc2)C(=O)c2ccccc2C1=O)c1ccccc1` was 34.4 µM. With `Cc1ccc(SCc2[nH]nc3c2C(c2ccc(C)o2)C(C#N)=C(N)O3)cc1` (stereo not drawn), the AC50 is > 38 µM (inactive). As to `N#Cc1nccnc1S(=O)(=O)c1cccs1`, the AC50 was > 38 µM (inactive). Turning to `COc1cc(Br)c(C2C(C#N)=C(N)Oc3n[nH]c(-c4cccnc4)c32)cc1OC` (stereo not drawn), the AC50 is 34.5 µM. With `Cc1cc(OC(=O)c2ccccc2)n(CCC#N)n1` the figure was 17.7 µM; with `CCCCn1c(NC(=O)c2ccc(Br)o2)c(S(=O)(=O)c2ccccc2)c2nc3ccccc3nc21`, > 38 µM (inactive); with `Oc1ccc(N=Cc2ccc(O)c(O)c2)cc1`, 17.6 µM.

In the case of `COc1ccc(S(=O)(=O)Nc2c(O)ccc3ccccc23)cc1OC`, the half-maximal activity concentration (AC50) is 22.9 µM. With `NS(=O)(=O)c1ccc(N=Cc2c(O)c3ccccc3oc2=O)cc1` the figure was > 38 µM (inactive); with `O=C(O)COc1ccccc1C(Nc1cccnc1)c1cc(Cl)c2cccnc2c1O` (stereo not drawn), 6.01 µM; with `O=C1NC(c2ccc(-c3ccccc3[N+](=O)[O-])o2)C(C(=O)c2ccc(Cl)cc2)C(O)(C(F)(F)F)N1` (stereo not drawn), 17 µM. For `COc1ccc(/C=C2/C(=O)N(c3ccccc3)N=C2C)cc1Br`, the AC50 is 5.66 µM. Consider `O=C(Nc1n[nH]c(C(F)(F)F)n1)c1cccs1`, for which the AC50 was > 38 µM (inactive). With `CCCc1[nH]nc2c1C(CCC)C(C#N)=C(N)O2` (stereo not drawn), the AC50 is > 38 µM (inactive). Consider `CCc1cccc(NC(=O)CSCc2cc(=O)[nH][nH]2)c1`, for which the AC50 is 27.7 µM. With `CCOC1=C/C(=C/c2c(N)n3oc(C)cc3nc2=O)C=CC1=O` the figure was > 38 µM (inactive); with `CC1=NNC(=O)C1C(c1cccc(O)c1)C(C#N)C#N` (stereo not drawn), > 38 µM (inactive). In the case of `CCOC(=O)c1c(C)sc2c1N(C(=O)CCl)c1cc(Cl)ccc1S2`, the AC50 was 3.37 µM. For `Cn1ncnc2c(=O)n(C)c(=O)nc1-2`, the AC50 was 0.0837 µM. As for `COC(=O)Cc1[nH]nc2c1C1(CCSCC1)C(C#N)=C(N)O2`, the AC50 is > 12 µM (inactive).

Take `CC(=O)n1cc(N(C(=O)CCl)c2ccc([N+](=O)[O-])cc2)c2ccccc21`: the half-maximal activity concentration (AC50) is 4.74 µM. The value for `COc1ccc(S(=O)(=O)/N=C2\C=C(NS(=O)(=O)c3ccccc3)C(=O)c3ccccc32)cc1` was 2.95 µM; that for `O=C(Oc1ccc(N(C(=O)c2ccncc2)S(=O)(=O)c2ccc(Cl)cc2)cc1)c1ccncc1` was > 38 µM (inactive); that for `CCOC(=O)c1cc(C)sc1NC(=O)CSC1=NCCS1` was 19.6 µM. `Cc1ccc(Sc2ccc(NC(=O)CCl)cc2)c(C)c1`: the AC50 is 1.18 µM. In the case of `Oc1c(Cl)cc(Cl)c(Cl)c1Cc1c(O)c(Cl)cc(Cl)c1Cl`, the AC50 was 6.85 µM.

Regarding `Cc1nnc(N/N=C/c2ccccc2O)n1N`, the AC50 is 21.8 µM. With `C/C(CC(=O)Nc1ccccc1[N+](=O)[O-])=N\NC(=O)COc1ccccc1C` the figure was > 38 µM (inactive); with `FC(F)(F)c1nnc(-c2ccccc2)nc1Oc1ccc(Cl)cc1Cl`, > 38 µM (inactive).

In the case of `O=C(Nc1ccccc1)NN(C(=O)CCl)c1ccccc1`, the AC50 was 6.12 µM. Take `Nc1c(N2CCCC2)cc(Cl)c2nonc12`: the concentration at half-maximal activity (AC50) was 4.13 µM.

Take `O=C(Cc1cc(=O)[nH][nH]1)N/N=C/C(Cl)=C/c1ccccc1`: the AC50 is 19.8 µM and 11.1 µM. For `COc1cccc(C(=O)O/N=C(\N)c2ccc([N+](=O)[O-])cc2)c1OC`, the AC50 is > 38 µM (inactive).

Regarding `CC1=NNC(=O)C1C(c1ccccc1)C1C(=O)NN=C1C` (stereo not drawn), the AC50 is 6.67 µM.

In the case of `Cc1cc(O)c(C(C)C)cc1N=Cc1ccccc1O`, the AC50 was 5.1 µM. On to `c1ccc(CNc2nc(NCc3ccccc3)c3ccccc3n2)cc1`, for which the AC50 is 7.61 µM. `Cn1c(/N=C/c2c(O)ccc3ccccc23)nc2ccccc21`: the AC50 is 10.6 µM. `Oc1cnn(-c2ccccc2)c1`: the AC50 is > 38 µM (inactive). Turning to `Cc1c(OCC(=O)Nc2cccnc2)ccc2c3c(c(=O)oc12)CCC3`, the AC50 is > 38 µM (inactive).

Consider `CCOC(=O)C1CCN(c2nc(N)c3c(N)nc(SCC(=O)O)cc3c2C#N)CC1`, for which the AC50 was > 12 µM (inactive). The value for `COc1ccc(C(CCN(Cc2ccc(OC)c(OC)c2)C(=O)CCl)c2ccccc2)cc1` (stereo not drawn) was 0.613 µM; that for `COc1cc(/C=C2\C(=O)N(c3ccc(S(N)(=O)=O)cc3)N=C2C)ccc1OC(=O)c1ccco1` was 21 µM.

On to `O=c1[nH]c(CCl)nc2cc(-c3ccc(F)cc3)sc12`, for which the AC50 was 11.9 µM. The value for `CCCCCC(=O)O[C@]1(C(C)=O)CC[C@H]2[C@@H]3CCC4=CC(=O)CC[C@]4(C)[C@H]3CC[C@@]21C` was 2.02 µM; that for `CCC(C)NC(=O)c1c(N)n(Cc2ccc3c(c2)OCO3)c2nc3ccccc3nc12` (stereo not drawn) was 26.7 µM; that for `COC(=O)CC1(c2cccc3ccccc23)C(=O)c2ccccc2C1=O` was 19.1 µM. With `CCOc1ccc(S(=O)(=O)NCc2cccnc2)cc1C`, the AC50 is > 38 µM (inactive). The value for `CCN(Cc1ccc(OC)c(F)c1)C(=O)CCl` was 11.9 µM.

On to `CCOC(=O)C1(CCOc2ccccc2)CCN(Cc2ccc(O)c(Cl)c2)CC1`, for which the AC50 was > 38 µM (inactive). With `O=C(Cc1cc(=O)[nH][nH]1)N/N=C/c1c(Cl)cccc1Cl` the figure was 16 µM and 23.9 µM.

Turning to `Cc1ccc(SC(=O)c2c(C)noc2-c2cc(C)on2)cc1`, the AC50 is > 38 µM (inactive). With `O=C1C(Cl)=C(N2CCOCC2)C(=O)N1c1ccccc1Cl`, the AC50 was > 38 µM (inactive). The value for `O=C(CCl)Nc1cccc(CP(=O)(c2ccccc2)c2ccccc2)c1` was 17.8 µM.

As to `Cn1c(-c2ccccc2)c(C(=O)CCl)c2ccccc21`, the AC50 was 22.9 µM. On to `Cc1ccccc1CS(=O)(=O)c1nnc([C@H](Cc2ccccc2)NC(=O)OC(C)(C)C)o1`, for which the AC50 is > 38 µM (inactive). The value for `O=[N+]([O-])C(/C=C(\Cl)[N+](=O)[O-])=C1N(Cc2ccc(Cl)nc2)CCN1Cc1ccc(Cl)nc1` was > 38 µM (inactive). The value for `CC1C(=O)C(C)C(c2cc(Cl)ccc2O)NC1c1cc(Cl)ccc1O` (stereo not drawn) was 5.18 µM; that for `CC1=NNC(=O)C1C(c1ccc(F)cc1)C(C#N)C#N` (stereo not drawn) was > 38 µM (inactive); that for `COc1ccc(/C=C/C(=O)c2ccncc2)c2ccccc12` was 18.6 µM. The value for `O=C(c1cc(F)c(F)cc1Cl)N1CCN(c2ccc([N+](=O)[O-])c3ncccc23)CC1` was > 38 µM (inactive); that for `O=[N+]([O-])c1ccc(N2CCOCC2)c2ccncc12` was > 38 µM (inactive); that for `CCN(CC)c1ccc(/C=C2\C(=O)N(c3nnc(C)c(=O)[nH]3)N=C2C)cc1` was 5.67 µM. For `FC(F)(F)c1nnc(-c2ccccc2)nc1Sc1ccccc1`, the AC50 was > 38 µM (inactive). The value for `COc1ccccc1NC(=O)C1=C(C)Nc2nnnn2C1c1ccncc1` (stereo not drawn) was > 38 µM (inactive); that for `Cc1cc(=O)n(C2CCS(=O)(=O)C2)[nH]1` (stereo not drawn) was 3.63 µM. For the compound `COc1ccc(-n2c3nc4ccccc4nc3c3c(=N)oc(C)nc32)cc1`, the AC50 is > 12 µM (inactive). With `CC(=O)N(c1ccccc1)C(C)c1nc(C#N)c(C#N)nc1C` (stereo not drawn) the figure was > 38 µM (inactive); with `CC(C)c1[nH]nc2c1C1(CCN(Cc3ccccc3)CC1)C(C#N)=C(N)O2`, > 38 µM (inactive). `Cc1cc2c3c(c1)C(C)CC(C)(C)N3C(=O)C2=C(C#N)C#N` (stereo not drawn): the AC50 was > 38 µM (inactive). As for `CNc1ccc2nc3ccccc3[n+](C)c2c1`, the AC50 was 11.3 µM. For `CC(=O)Nc1ccc(NC(=O)c2nc(S(=O)(=O)Cc3cccc(C)c3)ncc2Cl)cc1`, the AC50 is > 38 µM (inactive).

As for `CC(C)(C)c1[nH]nc2c1C(Cc1ccccc1)C(C#N)=C(N)O2` (stereo not drawn), the AC50 was > 38 µM (inactive). For `CCCc1[nH][nH]c(=O)c1C(c1ccc(Br)cc1)C(C#N)C#N` (stereo not drawn), the AC50 is 32.2 µM. On to `CC1=CC2(O)OCCN(CCO)C2=CC1=O` (stereo not drawn), for which the AC50 was 13.5 µM. With `COc1ccccc1NC(=O)CSc1nc2c(sc3ccccc32)c(=O)n1CCN(C)C` the figure was > 38 µM (inactive). On to `Cc1nc2c(-c3ccc(F)cc3)c(C)[nH]n2c(=O)c1Cl`, for which the AC50 was > 38 µM (inactive).

Turning to `COc1ccc(/C(=N/OC(C)=O)c2nccc3cc(OC)c(OC)cc23)cc1OC`, the AC50 was > 38 µM (inactive).

As to `Cc1nn(-c2ccccc2)c(Cl)c1CN(C(=O)CCl)c1cccc2ccccc12`, the AC50 was 0.933 µM.

As to `CC(=O)n1cc(N(C(=O)CCl)c2ccc(C)cc2)c2ccccc21`, the AC50 was 1.38 µM. In the case of `COc1ccc(CN2CCNC(=O)C2CC(=O)N(C)Cc2ccncn2)c(OC)c1` (stereo not drawn), the AC50 is > 38 µM (inactive).

In the case of `CC(=O)NCCn1c(SCC(=O)NCc2ccco2)nc2ccccc2c1=O`, the AC50 is > 38 µM (inactive).

The term AC50 denotes the midpoint of the concentration-response curve, whichever way the signal moves.

(Values after PubChem BioAssay AID449750 (Broad Institute, 2010).)
